One assay has as its target phosphorylated active hERK2 enzyme (Homo sapiens (Human), UniProt P28482). Kind of assay: Active Human ERK2 (hERK2) Activity Assay (IMAP-FP). In kind it is biochemical. The settings on record: Table 5, 0.5 nM hERK2, 30 μM ATP, 10 point titration, read-out: AERK2 IC50. The method, then:
Assays Active Human ERK2 (hERK2) Activity Assay:
Activated ERK2 activity was determined in an IMAP-FP assay (Molecular Devices). […] The final reaction in each well of 25 μL consists of 0.5 nM hERK2, 900 nM unlabeled peptide, 80 nM labeled-peptide, and 30 μM ATP. Phosphorylation reactions were allowed to proceed for 60 minutes and were immediately quenched by the addition of 60 μL IMAP detection beads (1:1000 dilutions) in IMAP binding buffer (Molecular Devices) with 24 mM NaCl. Plates were read on EnVision reader after 60 minutes binding equilibration using Fluorescence Polarization protocol (Perkin Elmer).
Chain of phosphorylated active hERK2 enzyme (P28482 whole entry): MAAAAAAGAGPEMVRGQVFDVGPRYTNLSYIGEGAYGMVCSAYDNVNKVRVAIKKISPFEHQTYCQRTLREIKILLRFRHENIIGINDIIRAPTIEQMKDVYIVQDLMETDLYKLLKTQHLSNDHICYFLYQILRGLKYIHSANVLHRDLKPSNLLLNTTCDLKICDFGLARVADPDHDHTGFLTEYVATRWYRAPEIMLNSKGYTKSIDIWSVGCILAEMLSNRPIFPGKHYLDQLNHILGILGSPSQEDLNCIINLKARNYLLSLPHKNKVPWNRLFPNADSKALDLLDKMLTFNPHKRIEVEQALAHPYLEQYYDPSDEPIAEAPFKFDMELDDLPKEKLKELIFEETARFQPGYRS
By IC50 is commonly meant the midpoint of a concentration-inhibition curve. In the case of `C[C@@H](NC(=O)Nc1cc2[nH]nc(N3CCOCC3)c2cn1)c1ccccc1` [Example 32, 1-(3-morpholin-4-yl-1H-pyrazolo[4,3-c]pyridin-6-yl)-3-[(1R)-1-phenylethyl]urea], the IC50 was 0.37 nM.

As to `COC[C@H](C)NC(=O)Nc1cc2[nH]nc(N3CCOCC3)c2cn1` [Example 12, 1-[(1S)-2-methoxy-1-methylethyl]-3-(3-morpholin-4-yl-1H-pyrazolo[4,3-c]pyridin-6-yl)urea], the half-inhibitory concentration (IC50) came to 51.6 nM.

The assay is the same for the next values; noted with them: Table 6, 0.5 nM hERK2, 30 μM ATP, 10 point titration, read-out: AERK2 IC50.
Take `CCNc1n[nH]c2cc(NC(=O)N[C@H](COC(F)F)c3ccccc3)ncc12` [Example 353, 1-[(1S)-2-(difluoromethoxy)-1-phenylethyl]-3-[3-(ethylamino)-1H-pyrazolo[4,3-c]pyridin-6-yl]urea]: the IC50 was 0.6 nM.

Turning to `COC[C@@H](NC(=O)Nc1cc2[nH]nc(N[C@H]3CCOC3)c2cn1)c1ccccc1` [Example 76, 1-[(1S)-2-methoxy-1-phenylethyl]-3-{3-[(3S)-tetrahydro-furan-3-ylamino]-1H-pyrazolo[4,3-c]-pyridin-6-yl}urea], the IC50 came to 1.3 nM.

Turning to `CCNc1n[nH]c2cc(NC(=O)NC(CC)c3ccccn3)ncc12` (stereo not drawn) [Example 320, 1-(3-(ethylamino)-1H-pyrazolo[4,3-c]pyridin-6-yl)-3-(1-(pyridin-2-yl)propyl)urea], the IC50 stood at 33 nM.

As for `COC[C@@H](NC(=O)Nc1cc2[nH]nc(Nc3ccccc3C#N)c2cn1)c1ccccc1` [Example 383, 1-{3-[(2-cyanophenyl)amino]-1H-pyrazolo[4,3-c]pyridin-6-yl}-3-[(1S)-2-methoxy-1-phenylethyl]urea], the half-maximal inhibitory concentration (IC50) was found to be 2280 nM.

In the case of `C[C@@H](NC(=O)Nc1cc2[nH]nc(NC3CC3)c2cn1)c1ccccc1` [Example 330, 1-[3-(cyclopropyl-amino)-1H-pyrazolo[4,3-c]pyridin-6-yl]-3-[(1R)-1-phenylethyl]urea], the IC50 was 0.9 nM.

Take `C[C@@H](NC(=O)Nc1cc2[nH]nc(N3CC4CCC(C3)O4)c2cn1)c1ccccc1` [Example 453, 1-[3-(8-oxa-3-azabicyclo[3.2.1]-oct-3-yl)-1H-pyrazolo[4,3-c]-pyridin-6-yl]-3-[(1R)-1-phenylethyl]urea]: the IC50 turned out to be 3.4 nM.

Consider `CC(C)(O)[C@@H](NC(=O)Nc1cc2[nH]nc(N3CC4CCC(C3)O4)c2cn1)c1ccccc1` [Example 442, 1-[(1S)-2-hydroxy-2-methyl-1-phenylpropyl]-3-[3-(8-oxa-3-azabicyclo[3.2.1]-oct-3-yl)-1H-pyrazolo[4,3-c]-pyridin-6-yl]urea], for which the IC50 is 0.5 nM.

For the compound `O=C(Nc1cc2[nH]nc(NC(=O)N3CC(F)(F)C3)c2cn1)N[C@@H]1CCCOc2ccccc21` [Example 397, 3,3-difluoro-N-(6-{[(5R)-2,3,4,5-tetrahydro-1-benzoxepin-5-yl-carbamoyl]amino}-1H-pyrazolo[4,3-c]pyridin-3-yl)-azetidine-1-carboxamide], the concentration for half-maximal inhibition (IC50) worked out at 4.4 nM.

On to `C[C@H](O)[C@@H](NC(=O)Nc1cc2[nH]nc(N3CCOCC3)c2cn1)c1ccc(F)cc1` [Example 98, 1-[(1S,2S)-1-(4-fluorophenyl)-2-hydroxypropyl]-3-(3-morpholin-4-yl-1H-pyrazolo[4,3-c]-pyridin-6-yl)urea], for which the IC50 came out at 0.2 nM.

`CCNc1n[nH]c2cc(NC(=O)NCC(C)c3ccccc3)ncc12` (stereo not drawn) [Example 226, 1-[3-(ethylamino)-1H-pyrazolo[4,3-c]pyridin-6-yl]-3-(2-phenylpropyl)-urea]: the IC50 amounted to 17 nM.

As to `C[C@H](Nc1n[nH]c2cc(NC(=O)N[C@H](C)c3ccccc3)ncc12)c1ccccn1` [Example 86, 1-[(1R)-1-phenylethyl]-3-(3-{[(1S)-1-pyridin-2-ylethyl]amino}-1H-pyrazolo[4,3-c]-pyridin-6-yl)urea], the half-inhibitory concentration (IC50) was found to be 4.7 nM.

`O=C(Nc1cc2[nH]nc(N3CCOCC3)c2cn1)N[C@H](CO)c1ccccc1` [Example 437, 1-[(1S)-2-hydroxy-1-phenylethyl]-3-(3-morpholin-4-yl-1H-pyrazolo[4,3-c]pyridin-6-yl)urea]: the IC50 was determined as 0.4 nM.

On to `CC(C)(O)[C@@H](NC(=O)Nc1cc2[nH]nc(N)c2cn1)c1ccc(F)cc1` [Example 443, 1-(3-amino-1H-pyrazolo[4,3-c]-pyridin-6-yl)-3-[(1S)-1-(4-fluorophenyl)-2-hydroxy-2-methylpropyl]urea], for which the IC50 amounted to 0.7 nM.

For `COC(=O)Nc1n[nH]c2cc(NC(=O)NC(C)c3ccc(F)c(F)c3)ncc12` (stereo not drawn) [Example 303, methyl [6-({[1-(3,4-difluoro-phenyl)ethyl]-carbamoyl}amino)-1H-pyrazolo[4,3-c]pyridin-3-yl]-carbamate], the concentration for half-maximal inhibition (IC50) was found to be 3.1 nM.

As to `Nc1n[nH]c2cc(NC(=O)N[C@H](COC(F)F)c3ccccc3)ncc12` [Example 352, 1-(3-amino-1H-pyrazolo[4,3-c]-pyridin-6-yl)-3-[(1S)-2-(difluoromethoxy)-1-phenylethyl]urea], the concentration for half-maximal inhibition (IC50) is 1.2 nM.

Consider `CC(C)(O)[C@@H](NC(=O)Nc1cc2[nH]nc(N)c2cn1)c1ccccc1` [Example 425, 1-(3-amino-1H-pyrazolo[4,3-c]-pyridin-6-yl)-3-[(1S)-2-hydroxy-2-methyl-1-phenylpropyl]urea], for which the IC50 is 14.9 nM.

As for `Cc1nc(NC(=O)N[C@@H](c2ccc(F)cc2)C(C)(C)O)cc2[nH]nc(N3CCC3)c12` [Example 110, 1-(3-azetidin-1-yl-4-methyl-1H-pyrazolo[4,3-c]-pyridin-6-yl)-3-[(1S)-1-(4-fluorophenyl)-2-hydroxy-2-methylpropyl]urea], the IC50 amounted to 1.3 nM.

`C[C@@H](NC(=O)Nc1cc2[nH]nc(N[C@H]3CCOC3)c2cn1)c1ccccc1` [Example 77, 1-[(1R)-1-phenylethyl]-3-{3-[(3S)-tetrahydro-furan-3-ylamino]-1H-pyrazolo[4,3-c]-pyridin-6-yl}urea]: the concentration for half-maximal inhibition (IC50) came out at 2.1 nM.

In the case of `COCc1nc(NC(=O)N[C@H](C)c2ccccc2)cc2[nH]nc(N)c12` [Example 69, (R)-1-(3-amino-4-(methoxymethyl)-1H-pyrazolo[4,3-c]pyridin-6-yl)-3-(1-phenylethyl)urea], the IC50 was 1.5 nM.

With `C[C@@H](O)[C@@H](NC(=O)Nc1cc2[nH]nc(N3CCC(F)(F)CC3)c2cn1)c1ccc(F)cc1` [Example 365, 1-[3-(4,4-difluoropiperidin-1-yl)-1H-pyrazolo[4,3-c]pyridin-6-yl]-3-[(1S,2R)-1-(4-fluorophenyl)-2-hydroxypropyl]urea], the IC50 was found to be 0.9 nM.

For `C[C@@H](NC(=O)Nc1cc2[nH]nc(NC(=O)OCC(F)F)c2cn1)c1ccc(F)cc1` [Example 405, 2,2-difluoroethyl [6-({[(1R)-1-(4-fluorophenyl)ethyl]carbamoyl}amino)-1H-pyrazolo[4,3-c]pyridin-3-yl]-carbamate], the IC50 came to 21.6 nM.

In the case of `CC(CN1CCOCC1)Nc1n[nH]c2cc(NC(=O)N[C@H](C)c3ccccc3)ncc12` (stereo partly drawn) [Example 175, 1-{3-[(1-methyl-2-morpholin-4-ylethyl)amino]-1H-pyrazolo[4,3-c]pyridin-6-yl}-3-[(1R)-1-phenylethyl]urea], the IC50 was found to be 33.8 nM.

Take `CCNc1n[nH]c2cc(NC(=O)NC3CNc4ccccc4C3)ncc12` (stereo not drawn) [Example 232, 1-[3-(ethylamino)-1H-pyrazolo[4,3-c]pyridin-6-yl]-3-(1,2,3,4-tetrahydro-quinolin-3-yl)urea]: the IC50 amounted to 18.6 nM.

Take `C[C@@H](NC(=O)Nc1cc2[nH]nc(NCC3CC3)c2cn1)c1ccccc1` [Example 159, 1-{3-[(cyclopropyl-methyl)amino]-1H-pyrazolo[4,3-c]-pyridin-6-yl}-3-[(1R)-1-phenylethyl]urea]: the IC50 turned out to be 1.8 nM.

For `C[C@@H](NC(=O)Nc1cc2[nH]nc(NCc3ccccc3)c2cn1)c1ccccc1` [Example 178, 1-[3-(benzyl-amino)-1H-pyrazolo[4,3-c]-pyridin-6-yl]-3-1-[(1R)-1-phenylethyl]urea], the IC50 came to 4.6 nM.

For the compound `CCNc1n[nH]c2cc(NC(=O)N[C@H](c3ccccc3)[C@H]3CCCO3)ncc12` [Example 150, 1-[3-(ethylamino)-1H-pyrazolo[4,3-c]pyridin-6-yl]-3-{(R)-phenyl[(2R)-tetrahydrofuran-2-yl]methyl}urea], the concentration for half-maximal inhibition (IC50) was found to be 359 nM.

In the case of `C[C@@H](NC(=O)Nc1cc2[nH]nc3c2c(n1)CCN3)c1ccccc1` [Example 136, (R)-1-(1-phenylethyl)-3-(1,3,4,5-tetrahydropyrazolo[3,4,5-de][1,6]naphthyridin-7-yl)urea], the IC50 was 12.2 nM.

As for `C[C@@H](NC(=O)Nc1cc2[nH]nc(N)c2c(Cl)n1)c1ccccc1` [Example 444, 1-(3-amino-4-chloro-1H-pyrazolo[4,3-c]-pyridin-6-yl)-3-[(1R)-1-phenylethyl]urea], the IC50 was 1.2 nM.

Turning to `CC(C)(O)[C@@H](NC(=O)Nc1cc2[nH]nc3c2c(n1)CCN3)c1ccccc1` [Example 137, (S)-1-(2-hydroxy-2-methyl-1-phenylpropyl)-3-(1,3,4,5-tetrahydropyrazolo[3,4,5-de][1,6]naphthyridin-7-yl)urea], the concentration for half-maximal inhibition (IC50) was 1.3 nM.

For the compound `COC(=O)Nc1n[nH]c2cc(NC(=O)N[C@H](C)c3ccc(Cl)c(O)c3)ncc12` [Example 307, methyl [6-({[(1R)-1-(4-chloro-3-hydroxyphenyl)-ethyl]carbamoyl}-amino)-1H-pyrazolo[4,3-c]-pyridin-3-yl]-carbamate], the IC50 worked out at 1.7 nM.

Turning to `C[C@@H](NC(=O)Nc1cc2[nH]nc(NC3CCSC3)c2cn1)c1ccccc1` (stereo partly drawn) [Example 359, 1-[(1R)-1-phenylethyl]-3-[3-(tetrahydrothiophen-3-ylamino)-1H-pyrazolo[4,3-c]-pyridin-6-yl]urea], the IC50 is 1.2 nM.

These data come from patent publication US9233979B2, “Compounds that are ERK inhibitors” (Merck Sharp & Dohme Corp., priority 2012, dated 2016).
